Key:
HEK293T cells = assay: Metabolic conversion and uptake of 2-hydroxylated fatty acids in HEK293T cell cultures; assay type: in vitro ADME, human; conditions: HEK293T; for Formation of the metabolite from its 2-hydroxylated prodrug in the presence of oxythiamine: prodrug 100 μM, 24 h, 10 mM oxythiamine
Procedure: To describe the metabolic conversion of DHA-H to HPA(C21:5 ω-3), as well as the conversion of LA-H to HDA (C17:2 ω-6), ALA-H to HTA ω-3 (C17:3 ω-3), GLA-H to HTA ω-6 (C17:3 ω-6), ARA-H to NTA (C19:4 ω-6), EPA-H to NPA (C19:5 ω-3), HEK293T (Human Embryonic Kidney Cells 293T) cell cultures were employed, which is an embryonic, non-tumoral cell line, widely used in human metabolism studies under physiological conditions.
HEK293T cells were cultured in Dulbecco's Modified Eagle's Medium (DMEM; Dubelcco's Modified Eagle's Medium, Biowest, France), supplemented with 10% FBS (Fetal Bovine Serum; Gibco, Thermo-Fisher), 2 mM L-Gln, 25 mM D(+)-glucose, 1 mM sodium pyruvate, and penicillin/streptomycin. Mouse neuroblastoma N2a cells were maintained in a 1:1 (v:v) mixture of DMEM and Opti-Mem (Gibco, Thermo-Fisher), supplemented with 5% FBS and penicillin/streptomycin. Both cell lines were incubated in an atmosphere of 5% CO2 at 37° C.
HEK293T cells were incubated with DHA-H and DHA at 10, 30 and 100 μM for 24 hours, and at 30 μM for 6, 48 and 72 hours. These cells were also incubated with LA-H, ALA-H, GLA-H, ARA-H and EPA-H at 100 μM for 24 hours. HEK293T cells were also incubated with oxythiamine in the presence of DHA-H under the same conditions, at final oxythiamine concentrations of 1 and 10 mM. The HEK293T cells were separated from the plates by pipettes with cold phosphate buffer saline solution (PBS). Cells were recovered by centrifugation (1000 xg, 10 min at 4° C.) and washed twice with cold PBS before being frozen at −80° C. To analyze DHA-H and DHA levels in the cell culture medium, 90 mm diameter plates were filled with 11 mL of complete cell culture medium containing 30 μM DHA-H or DHA in the presence or absence of attached HEK293T cells (5.10^5 cells/plate). The plates were incubated as described above and 1 ml aliquots of the plates were collected at 0, 6, 24, 48 and 72 hours. Aliquots of the cell culture medium were immediately centrifuged at 1000×g for 10 min at 4° C. to remove any cell suspension and the cell-free aliquots were stored at -20° C.
The cell lysates were subjected to ultrasound pulses (4 cycles, 10 s/cycle, 10 W) before lipid extraction. For brain analysis, the tissue of each animal was homogenized in cold PBS at 1:10 (p:v) in the presence of protease inhibitors (Roche), using a blade homogenizer (Polytron PT3100). Homogenates were ultrasounded, aliquots were made and stored at −80 ° C. Only one aliquot of each sample, containing about 8 mg protein/aliquot, was subjected to lipid extraction. Protein content before lipid extraction was determined by a modified Lowry method (Bio-rad DC Protein Assay).
Margaric acid (C17:0) was added to the samples subjected to lipid extraction as an internal standard and the lipids were extracted with chloroform:methanol (Eggers and Schwudke, 2016). Briefly, 0.75 volumes of the aqueous phase (which already contained the biological sample) were mixed with 2 volumes of chloroform and 1 volume of methanol. This mixture was vortexed for 1 minute and centrifuged at 1000×g for 10 minutes. The lower organic phase was collected and washed with 1 ml of PBS:methanol (1:1,v:v), and the resulting organic phase was dried under argon flow. The film containing the extracted lipids was transmethylated by incubation of the lipid mixture for 90 minutes at 100° C. in 3 ml of methanol:acetyl chloride (10:1, v:v), under an argon atmosphere (Christie, 1993). The resulting fatty acid methyl esters (FAMEs) were extracted with hexane, adding 3 ml of H2O and 1 ml of hexane to the transmethylation reaction, and vortexing the mixture thoroughly. After centrifugation at room temperature (1000×g for 10 min), the upper phase containing the FAMEs was collected and the remaining volume was washed twice with 1 ml of hexane.

A549 = assay: IC50 in tumor cell cultures (cell survival, XTT / trypan blue); assay type: cell-based; conditions: A549 human lung adenocarcinoma cell line
Procedure: (§1) Cell survival was analyzed in a Barker chamber using trypan blue vital exclusion staining (Scharlab) or by cell proliferation kit II (Roche). Briefly, the cells were seeded in 96-well plates at a density of 3 x 10^3 cells per well 24 h prior to treatment, and then cultured in the presence or absence of compounds of interest at the concentrations and for the times indicated in the figures. After different times, plaque viable cells were determined by the addition of XTT according to the manufacturers instructions. Cells were incubated at 37° C. in 5% CO2 until a constant color was developed and absorbance was recorded at 495 nm using a microplate reader with a reference wavelength of 650 nm (FLUOstar Omega, BMG LABTECH, Germany).
(§2) The anti-tumor activity of the different metabolites described in FIGS. 8 and 9 was determined by direct treatment with these molecules (HDA or C17:2 ω-6, HTA ω-3 or C17:3 ω-3, HTA ω-6 or C17:3 ω-6, NTA or C19:4 ω-6, NPA or C19:5 ω-3, and HPA or C21:5 ω-3) in tumor cell cultures, on which the IC50 value for each of these compounds was determined (Inhibitory Concentration 50: concentration of study compound that induces death of 50% of the tumor cell population).

MIA-PaCa 2 = assay: as above; assay type: cell-based; conditions: Homo sapiens; MIA-PaCa 2 pancreatic cancer cell line
Procedure: as §1, §2

SF-295 glioma cells = assay: Cell viability by violet crystal staining, 72 hours; assay type: cell-based, human; conditions: SF-295, 72 hours
Procedure: FIG. 14. Effect of 2OHOA sodium salt, OA and C17:1n-9 sodium salt on cell viability and proliferation of glioma cells. […] Viability was determined by violet crystal staining.
(§3) In order to evaluate the antiproliferative effect of C17:1n-9, its IC50, which corresponds to the amount of a compound needed to reduce cell viability in vitro by 50%, as well as its effect on the regulation of proteins involved in the mechanism of action of 2OHOA, were determined. […] Upon completion of treatment, IC50 was determined by violet crystal staining technique. […] The IC50 of 2OHOA was 1000 μM for non-tumor cells, MRC-5 and astrocytes.

[1] = tested on: MRC-5 (human fibroblasts); assay: as above; assay type: cell-based; conditions: MRC-5 non-tumor cells
Procedure: FIG. 15. Effect of 2OHOA sodium salt, C17:1n-9 sodium salt, and OA on cell viability and proliferation of non-tumor cells. Non-tumor cell viability curves (A1-A3) MRC-5 (human fibroblasts); and (B1-B3) mouse astrocytes treated with increasing doses of 2OHOA sodium salt (0-1000 μM) (A1 and B1); OA (0-300 μM) (A2 and B2); and C17:1n-9 sodium salt (0-300 μM) (A3 and B3) for 72 hours. Viability was determined by violet crystal staining.
as §3

[2] = tested on: BIP, CHOP, cJun phosphorylation, phosphorylation of Akt, cyclin D3; assay: Western Blot of proliferation and death markers in glioma and non-tumor cell lines; assay type: cell-based; conditions: glioma cells, oxythiamine 2 mM, 72h
Procedure: FIG. 16. Analysis of the effect of different fatty acids on markers of proliferation and death in different cell lines.
(§4) To study whether the metabolite C17:1n-9 can participate in the action of 2OHOA, the effect of pre-incubation with oxythiamine on cell survival and 2OHOA-regulated proteins was studied. To do this, the cell survival of different glioma and non-tumor cell lines treated with 2OHOA (400 μM, 72 hours) and pre-incubated or not with 2 mM […] (90 minutes) was analyzed by counting the cells with the vital exclusion stain with trypan blue. In addition, Western-blot 2OHOA-modulated proteins were studied. In glioma cells, a significant decrease in cell survival was observed after incubation with 2 mM oxythiamine for 72 hours.

SF-295 = assay: Cell survival by trypan blue vital exclusion staining, 2OHOA and oxythiamine; assay type: cell-based, human; conditions: SF-295, 2 mM oxythiamine, 72 hours
Procedure: FIG. 18. Effect of metabolite C17:1n-9 on the action of 2OHOA. […] Cell viability was determined by vital exclusion staining with trypan blue.
as §4

CC/C=C\C/C=C\C/C=C\C/C=C\C/C=C\C/C=C\CCC(=O)O [DHA, docosahexaenoic acid, reference compound]
Levels in the culture medium in the presence of cell culture (uptake) (HEK293T cells; 30 μM, up to 72 h): decreased significantly at 48 and 72 h

CCCCC/C=C\C/C=C\CCCCCCC(=O)O [HDA, (8Z,11Z)-heptadeca-8,11-dienoic acid]
IC50 (A549): 159 ± 10 µM | IC50 (MIA-PaCa 2): 234 ± 18 µM | Formation of the metabolite from its 2-hydroxylated prodrug in the presence of oxythiamine (HEK293T cells): inhibited

CC/C=C\C/C=C\C/C=C\CCCCCCC(=O)O [HTA n-3, (8Z,11Z,14Z)-heptadeca-8,11,14-trienoic acid]
IC50 (A549): 166 ± 30 µM | IC50 (MIA-PaCa 2): 216 ± 24 µM | Formation of the metabolite from its 2-hydroxylated prodrug in the presence of oxythiamine (HEK293T cells): inhibited

CCCCC/C=C\C/C=C\C/C=C\CCCC(=O)O [HTA n-6, (5Z,8Z,11Z)-heptadeca-5,8,11-trienoic acid]
IC50 (A549): 212 ± 48 µM | IC50 (MIA-PaCa 2): 95 ± 31 µM | Formation of the metabolite from its 2-hydroxylated prodrug in the presence of oxythiamine (HEK293T cells): inhibited

CC/C=C\C/C=C\C/C=C\C/C=C\C/C=C\CCC(=O)O [NPA, (4Z,7Z,10Z,13Z,16Z)-nonadeca-4,7,10,13,16-pentaenoic acid]
IC50 (A549): 143 ± 39 µM | IC50 (MIA-PaCa 2): 91 ± 18 µM | Formation of the metabolite from its 2-hydroxylated prodrug in the presence of oxythiamine (HEK293T cells): inhibited

CCCCC/C=C\C/C=C\C/C=C\C/C=C\CCC(=O)O [NTA, (4Z,7Z,10Z,13Z)-nonadeca-4,7,10,13-tetraenoic acid]
IC50 (A549): 216 ± 3 µM | IC50 (MIA-PaCa 2): 62 ± 2 µM | Formation of the metabolite from its 2-hydroxylated prodrug in the presence of oxythiamine (HEK293T cells): inhibited

CCCCCCCC/C=C\CCCCCCCC(=O)[O-].[Na+] [OA, reference compound]
IC50 (SF-295 glioma cells): 256 ± 5.79 µM | IC50 [1]: 236 ± 6.73 µM

Cc1ncc(C[n+]2csc(CCO)c2C)c(=O)[nH]1 [oxythiamine, reference compound]
Effect on signaling proteins (Western Blot) [2]: in the same sense as 2OHOA, although milder | Inhibition of the increase in HPA levels from DHA-H (HEK293T cells; oxythiamine 1 mM): partial inhibition | Inhibition of the increase in HPA levels from DHA-H (HEK293T cells; oxythiamine 10 mM): almost total | Cell death (SF-295): 17.35±0.63%

From patent US20230097753A1, “ALPHA-HYDROXYLATED FATTY-ACID METABOLITES, MEDICAL USES AND USE AS BIOMARKERS” (UNIVERSITAT DE LES ILLES BALEARS, priority 2020, published 2023)
